Measurements reported in patent US20040214784A1, “Permeable, water soluble, non-irritating prodrugs of chemotherapeutic agents with oxaalkanoic acids” (UNIVERSITY OF KENTUCKY RESEARCH FOUNDATION, priority 1999, published 2004).

Legend:
[1] = Half-lives of hydrolysis of the prodrugs in human serum
[2] = Half-lives of hydrolysis of the prodrugs in phosphate buffer at pH 7.4
[3] = pH 7.4, Half-life of hydrolysis, Buffer, phosphate buffer at ph 7.4

Structure (SMILES)	half-life ([1]; Half-life of hydrolysis, Serum) [min]	half-life [2, 3] [min]	other results
O=C(COCCOCCO)OCC1CCC(n2cnc3c(=O)[nH]cnc32)O1 (stereo not drawn)	5.5 ± 0.5	2760	–
COCCOCC(=O)OCC1CCC(n2cnc3c(=O)[nH]cnc32)O1 (stereo not drawn)	2.2	2400	–
Nc1ccn(C2CCC(COC(=O)COCCOCCO)O2)c(=O)n1 (stereo not drawn)	10 ± 1	1800	–
Cc1cn(C2CC(N=[N+]=[N-])C(COC(=O)COCCOCCO)O2)c(=O)[nH]c1=O (stereo not drawn)	20 ± 1	1260	–
COCCOCC(=O)OCC1OC(n2cc(C)c(=O)[nH]c2=O)CC1N=[N+]=[N-] (stereo not drawn)	3.6 ± 0.1	798 ± 12	–
CC(C)c1nc(CN(C)C(=O)N[C@H](C(=O)N[C@@H](Cc2ccccc2)C[C@H](OC(=O)COCCOCCO)[C@H](Cc2ccccc2)NC(=O)OCc2cncs2)C(C)C)cs1	1440	5760	–
COCCOCC(=O)O[C@H](CN1CC[C@H]2CCCC[C@H]2[C@H]1C(=O)NC(C)(C)C)[C@H](Cc1ccccc1)NC(=O)[C@H](CC(N)=O)NC(=O)c1ccc2ccccc2n1	960 ± 60	192 ± 30	–
CC(C)(C)NC(=O)[C@@H]1[C@@H]2CCCC[C@@H]2CCN1C[C@@H](OC(=O)COCCOCCO)[C@H](Cc1ccccc1)NC(=O)[C@H](CC(N)=O)NC(=O)c1ccc2ccccc2n1	360 ± 30	186 ± 6	–
COCCOCC(=O)OCn1cc(F)c(=O)[nH]c1=O	6	88	–
COCCOCC(=O)OCn1cc(F)c(=O)n(COC(=O)COCCOC)c1=O	–	–	half-life ([1]; Half-life of hydrolysis, Serum (to mono), hydrolysis to mono): 0.2 min; half-life ([2]; pH 7.4, Half-life of hydrolysis, Buffer (to mono), phosphate buffer at ph 7.4, hydrolysis to mono): 88 min
COCCOCC(=O)OCn1c(=O)[nH]cc(F)c1=O	0.5	546	–
CC[C@@]1(OC(=O)COCCOC)C(=O)OCc2c1cc1n(c2=O)Cc2cc3ccccc3nc2-1	120	1560	–
CC[C@@]1(OC(=O)COCCOCCO)C(=O)OCc2c1cc1n(c2=O)Cc2cc3ccccc3nc2-1	–	–	half-life [1]: 114 min; half-life ([2]; pH 7.4): 1800 min
COCCOCC(=O)O[C@@H](C[C@H](Cc1ccccc1)NC(=O)[C@@H](NC(=O)N(C)Cc1csc(C(C)C)n1)C(C)C)[C@H](Cc1ccccc1)NC(=O)OCc1cncs1	1440	> 2880	–
COCCOCC(=O)OCCOCn1cnc2c(=O)[nH]c(N)nc21	5.5	1800	–
COCCOCCOCC(=O)OCC1CCC(n2cnc3c(=O)[nH]cnc32)O1 (stereo not drawn)	1.2	1800	–
COCCOCCOCC(=O)Nc1ccn(C2CCC(COC(=O)COCCOCCOC)O2)c(=O)n1 (stereo not drawn)	35 ± 5	840 ± 60	–
COCCOCCOCC(=O)OCC1CCC(n2ccc(N)nc2=O)O1 (stereo not drawn)	4.5	1440	–
COCCOCCOCC(=O)OCC1OC(n2cc(C)c(=O)[nH]c2=O)CC1N=[N+]=[N-] (stereo not drawn)	24.2 ± 0.2	738 ± 6	–
COCCOCCOCC(=O)O[C@H](CN1CC[C@H]2CCCC[C@H]2[C@H]1C(=O)NC(C)(C)C)[C@H](Cc1ccccc1)NC(=O)[C@H](CC(N)=O)NC(=O)c1ccc2ccccc2n1	600 ± 60	210 ± 12	–
COCCOCCOCC(=O)OCn1cc(F)c(=O)[nH]c1=O	9	224	–
COCCOCCOCC(=O)OCn1c(=O)[nH]cc(F)c1=O	1	437	–
CC[C@@]1(OC(=O)COCCOCCOC)C(=O)OCc2c1cc1n(c2=O)Cc2cc3ccccc3nc2-1	–	–	half-life [1]: 120 min; half-life ([2]; pH 7.4): 1500 min
COCCOCCOCC(=O)OCC(CO)OCn1cnc2c(=O)[nH]c(N)nc21 (stereo not drawn)	12	1560	–
COCCOCCOCC(=O)OCC(COC(=O)COCCOCCOC)OCn1cnc2c(=O)[nH]c(N)nc21	37	600	–
COCCOCCOCC(=O)OCCOCn1cnc2c(=O)[nH]c(N)nc21	1	1320	–
COCCOCCOCC(=O)O[C@@H](C[C@H](Cc1ccccc1)NC(=O)[C@@H](NC(=O)N(C)Cc1csc(C(C)C)n1)C(C)C)[C@H](Cc1ccccc1)NC(=O)OCc1cncs1	> 2880	> 5760	–

Structure (SMILES)	half-life ([1]; Half-life of hydrolysis, Serum) [min]	half-life [2, 3] [min]	other results
COCCOCCOCC(=O)Oc1cc(/C=C\c2cc(OC)c(OC)c(OC)c2)ccc1OC	–	–	half-life [1]: 2 min; half-life ([2]; pH 7.4): 600 min
O=C(O)COCC(=O)OCC1CCC(n2cnc3c(=O)[nH]cnc32)O1 (stereo not drawn)	4 ± 0.5	564 ± 6	–
COC(=O)COCC(=O)OCC1CCC(n2ccc(N)nc2=O)O1 (stereo not drawn)	6 ± 0.2	600 ± 30	–
CC(C)c1nc(CN(C)C(=O)N[C@H](C(=O)N[C@@H](Cc2ccccc2)C[C@H](OC(=O)COCC(=O)O)[C@H](Cc2ccccc2)NC(=O)OCc2cncs2)C(C)C)cs1	2400	> 14400	–
COC(=O)COCC(=O)O[C@@H](C[C@H](Cc1ccccc1)NC(=O)[C@@H](NC(=O)N(C)Cc1csc(C(C)C)n1)C(C)C)[C@H](Cc1ccccc1)NC(=O)OCc1cncs1	144	330	–
COC(=O)COCC(=O)O[C@H](CN1CC[C@H]2CCCC[C@H]2[C@H]1C(=O)NC(C)(C)C)[C@H](Cc1ccccc1)NC(=O)[C@H](CC(N)=O)NC(=O)c1ccc2ccccc2n1	270	150	–
CC[C@@]1(OC(=O)COCC(=O)OC)C(=O)OCc2c1cc1n(c2=O)Cc2cc3ccccc3nc2-1	–	–	half-life [1]: 2 min; half-life ([2]; pH 7.4): 366 min
CN(C)CCOCCOC(=O)COCC(=O)O[C@H](CN1CC[C@H]2CCCC[C@H]2[C@H]1C(=O)NC(C)(C)C)[C@H](Cc1ccccc1)NC(=O)[C@H](CC(N)=O)NC(=O)c1ccc2ccccc2n1	1500	420	–
CN(C)CCOC(=O)COCC(=O)O[C@H](CN1CC[C@H]2CCCC[C@H]2[C@H]1C(=O)NC(C)(C)C)[C@H](Cc1ccccc1)NC(=O)[C@H](CC(N)=O)NC(=O)c1ccc2ccccc2n1	2100	600	–
CC[C@@]1(OC(=O)COCC(=O)OCCN(C)C)C(=O)OCc2c1cc1n(c2=O)Cc2cc3ccccc3nc2-1	–	–	half-life [1]: < 1 min; half-life ([2]; pH 7.4): 5 min
CN(C)CCOCCOC(=O)COCC(=O)OCC1CCC(n2cnc3c(=O)[nH]cnc32)O1 (stereo not drawn)	3	210	–
CC[C@@]1(OC(=O)COCC(=O)OCCOCCN(C)C)C(=O)OCc2c1cc1n(c2=O)Cc2cc3ccccc3nc2-1	–	–	half-life [1]: 40 min; half-life ([2]; pH 7.4): 180 min
CC(C)c1nc(CN(C)C(=O)N[C@H](C(=O)N[C@@H](Cc2ccccc2)C[C@H](OC(=O)COCC(=O)OCCOCCN(C)C)[C@H](Cc2ccccc2)NC(=O)OCc2cncs2)C(C)C)cs1	60	132	–
CC(C)OC(=O)COCC(=O)OCC1CCC(n2cnc3c(=O)[nH]cnc32)O1 (stereo not drawn)	5	600	–
CC(C)OC(=O)COCC(=O)Nc1ccn(C2CCC(COC(=O)COCC(=O)OC(C)C)O2)c(=O)n1 (stereo not drawn)	9.7	336	–
CC(C)OC(=O)COCC(=O)OCC1CCC(n2ccc(N)nc2=O)O1 (stereo not drawn)	1.3	492	–
CC(C)OC(=O)COCC(=O)Nc1ccn(C2CCC(CO)O2)c(=O)n1 (stereo not drawn)	204	1080	–
CC(C)OC(=O)COCC(=O)O[C@H](CN1CC[C@H]2CCCC[C@H]2[C@H]1C(=O)NC(C)(C)C)[C@H](Cc1ccccc1)NC(=O)[C@H](CC(N)=O)NC(=O)c1ccc2ccccc2n1	600	300	–
CC(C)(C)NC(=O)[C@@H]1[C@@H]2CCCC[C@@H]2CCN1C[C@@H](OC(=O)COCC(=O)OC(C)(C)C)[C@H](Cc1ccccc1)NC(=O)[C@H](CC(N)=O)NC(=O)c1ccc2ccccc2n1	1200	600	–
CC(C)(C)OC(=O)COCC(=O)OCC1CCC(n2ccc(N)nc2=O)O1 (stereo not drawn)	1.7	660	–
CC(C)(C)OC(=O)COCC(=O)Nc1ccn(C2CCC(CO)O2)c(=O)n1 (stereo not drawn)	300	960	–
CC(C)(C)OC(=O)COCC(=O)Nc1ccn(C2CCC(COC(=O)COCC(=O)OC(C)(C)C)O2)c(=O)n1 (stereo not drawn)	10.4	372	–
COC(=O)COCC(=O)Oc1cc(/C=C\c2cc(OC)c(OC)c(OC)c2)ccc1OC	–	–	half-life [1]: 2.5 min; half-life ([2]; pH 7.4): > 2880 min
COc1ccc(/C=C\c2cc(OC)c(OC)c(OC)c2)cc1OC(=O)COCC(=O)O	–	–	half-life [1]: 2 min; half-life ([2]; pH 7.4): 240 min
COc1ccc(/C=C\c2cc(OC)c(OC)c(OC)c2)cc1OC(=O)COCC(=O)OC(C)(C)C	7.4	510	–
Nc1nc2c(ncn2COCCOC(=O)COCC(=O)O)c(=O)[nH]1	1500	2400	–
CC(C)(C)OC(=O)COCC(=O)OCCOCn1cnc2c(=O)[nH]c(N)nc21	2.7	960	–
